Tested on: 171881-019-R-J1-PDC tumor spheroids, viability
Assay: Anticancer human tumor 171881-019-R-J1-PDC patient-derived invasive breast carcinoma cell line growth inhibition [GQUAD]
Conditions: spheroids with HUVEC and MSC; for IC50: curve of first compound; for viability, T/C: stronger effect = lower value
How it was run: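 Multi-cell-type spheroids of tumor cells with HUVEC and mesenchymal stem cells, treated with drug combinations. Concentrations descend in half-log steps from near clinical Cmax, or from 10 microM where Cmax is unknown; viability read-out.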

[1] = second compound 0.0316 µM, first compound 0.0316 µM
[2] = second compound 0.0316 µM, first compound 0.1 µM
[3] = second compound 0.0316 µM, first compound 0.316 µM
[4] = second compound 0.0316 µM, first compound 1 µM
[5] = second compound 0.0316 µM, first compound 3.16 µM
[6] = second compound 0.0316 µM, first compound 10 µM
[7] = second compound 0.1 µM, first compound 0.0316 µM
[8] = second compound 0.1 µM, first compound 0.1 µM
[9] = second compound 0.1 µM, first compound 0.316 µM
[10] = second compound 0.1 µM, first compound 1 µM
[11] = second compound 0.1 µM, first compound 3.16 µM
[12] = second compound 0.1 µM, first compound 10 µM
[13] = second compound 0.316 µM, first compound 0.0316 µM
[14] = second compound 0.316 µM, first compound 0.1 µM
[15] = second compound 0.316 µM, first compound 0.316 µM
[16] = second compound 0.316 µM, first compound 1 µM
[17] = second compound 0.316 µM, first compound 3.16 µM
[18] = second compound 0.316 µM, first compound 10 µM
[19] = second compound 1 µM, first compound 0.0316 µM
[20] = second compound 1 µM, first compound 0.1 µM
[21] = second compound 1 µM, first compound 0.316 µM
[22] = second compound 1 µM, first compound 1 µM
[23] = second compound 1 µM, first compound 3.16 µM
[24] = second compound 1 µM, first compound 10 µM
[25] = second compound 3.16 µM, first compound 0.0316 µM
[26] = second compound 3.16 µM, first compound 0.1 µM
[27] = second compound 3.16 µM, first compound 0.316 µM
[28] = second compound 3.16 µM, first compound 1 µM
[29] = second compound 3.16 µM, first compound 3.16 µM
[30] = second compound 3.16 µM, first compound 10 µM
[31] = second compound 10 µM, first compound 0.0316 µM
[32] = second compound 10 µM, first compound 0.1 µM
[33] = second compound 10 µM, first compound 0.316 µM
[34] = second compound 10 µM, first compound 1 µM
[35] = second compound 10 µM, first compound 3.16 µM
[36] = second compound 10 µM, first compound 10 µM
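Note: spheroids exposed to compounds for 7 days.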
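Throughout, for viability, T/C: 100% = DMSO vehicle control viability.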

## C=CCn1c(=O)c2cnc(Nc3ccc(N4CCN(C)CC4)cc3)nc2n1-c1cccc(C(C)(C)O)n1 + Cc1cnc(CNC(=O)c2c(=O)c3ccc(N4CCCN(C)CC4)nc3n3c2sc2ccccc23)cn1
Second compound 0.0316 µM
  IC50: 652 nM
Second compound 0.1 µM
  IC50: 541 nM
Second compound 0.316 µM
  IC50: 428 nM
Second compound 1 µM
  IC50: 496 nM
Second compound 3.16 µM
  IC50: 566 nM
Second compound 10 µM
  IC50: 358 nM
[1]
  viability, T/C: 106%
[2]
  viability, T/C: 84.2%
[3]
  viability, T/C: 74.9%
[4]
  viability, T/C: 36.3%
[5]
  viability, T/C: 19.9%
[6]
  viability, T/C: 23.3%
[7]
  viability, T/C: 72.9%
[8]
  viability, T/C: 76%
[9]
  viability, T/C: 60.6%
[10]
  viability, T/C: 37.3%
[11]
  viability, T/C: 22.6%
[12]
  viability, T/C: 22.2%
[13]
  viability, T/C: 72.1%
[14]
  viability, T/C: 68.6%
[15]
  viability, T/C: 55.7%
[16]
  viability, T/C: 34.3%
[17]
  viability, T/C: 26.1%
[18]
  viability, T/C: 24.8%
[19]
  viability, T/C: 66.5%
[20]
  viability, T/C: 60.4%
[21]
  viability, T/C: 56.6%
[22]
  viability, T/C: 41.3%
[23]
  viability, T/C: 31.1%
[24]
  viability, T/C: 28.1%
[25]
  viability, T/C: 66.1%
[26]
  viability, T/C: 58%
[27]
  viability, T/C: 58.5%
[28]
  viability, T/C: 42.3%
[29]
  viability, T/C: 36.6%
[30]
  viability, T/C: 35.3%
[31]
  viability, T/C: 57.4%
[32]
  viability, T/C: 54.6%
[33]
  viability, T/C: 50.2%
[34]
  viability, T/C: 48.7%
[35]
  viability, T/C: 36.4%
[36]
  viability, T/C: 36%

## CC(C)(O)C1CCC(Nc2ccc3ncc(-c4cccc(C(F)(F)F)c4)n3n2)CC1 (stereo not drawn) + Cc1cnc(CNC(=O)c2c(=O)c3ccc(N4CCCN(C)CC4)nc3n3c2sc2ccccc23)cn1
Second compound 0.0316 µM
  IC50: 1620 nM
Second compound 0.1 µM
  IC50: 1710 nM
Second compound 0.316 µM
  IC50: 1470 nM
Second compound 1 µM
  IC50: 1190 nM
Second compound 3.16 µM
  IC50: 1070 nM
Second compound 10 µM
  IC50: 927 nM
[1]
  viability, T/C: 95.8%
[2]
  viability, T/C: 87.5%
[3]
  viability, T/C: 89.5%
[4]
  viability, T/C: 69.7%
[5]
  viability, T/C: 18.2%
[6]
  viability, T/C: 26.9%
[7]
  viability, T/C: 88.7%
[8]
  viability, T/C: 83.8%
[9]
  viability, T/C: 70.9%
[10]
  viability, T/C: 73.4%
[11]
  viability, T/C: 19%
[12]
  viability, T/C: 27.2%
[13]
  viability, T/C: 76.5%
[14]
  viability, T/C: 76.7%
[15]
  viability, T/C: 72%
[16]
  viability, T/C: 63.1%
[17]
  viability, T/C: 21.9%
[18]
  viability, T/C: 25.7%
[19]
  viability, T/C: 71.9%
[20]
  viability, T/C: 65.2%
[21]
  viability, T/C: 72.9%
[22]
  viability, T/C: 56.3%
[23]
  viability, T/C: 13.6%
[24]
  viability, T/C: 18%
[25]
  viability, T/C: 65.4%
[26]
  viability, T/C: 60%
[27]
  viability, T/C: 63.1%
[28]
  viability, T/C: 53.1%
[29]
  viability, T/C: 0.32%
[30]
  viability, T/C: 0.82%
[31]
  viability, T/C: 59.3%
[32]
  viability, T/C: 62.5%
[33]
  viability, T/C: 58.1%
[34]
  viability, T/C: 49.3%
[35]
  viability, T/C: 0.4%
[36]
  viability, T/C: 0.62%

## COc1ncnc(C2CC2)c1-c1ncc2cnn(Cc3ccc(-c4nc(C(F)(F)F)cn4C(C)C)cc3)c2n1 + Cc1cnc(CNC(=O)c2c(=O)c3ccc(N4CCCN(C)CC4)nc3n3c2sc2ccccc23)cn1
Second compound 0.0316 µM
  IC50: > 10000 nM
Second compound 0.1 µM
  IC50: > 10000 nM
Second compound 0.316 µM
  IC50: > 10000 nM
Second compound 1 µM
  IC50: > 10000 nM
Second compound 3.16 µM
  IC50: > 10000 nM
Second compound 10 µM
  IC50: > 10000 nM
[1]
  viability, T/C: 93.6%
[2]
  viability, T/C: 85.3%
[3]
  viability, T/C: 82.4%
[4]
  viability, T/C: 85.4%
[5]
  viability, T/C: 92%
[6]
  viability, T/C: 87%
[7]
  viability, T/C: 76.2%
[8]
  viability, T/C: 83%
[9]
  viability, T/C: 70%
[10]
  viability, T/C: 81.7%
[11]
  viability, T/C: 73.9%
[12]
  viability, T/C: 71.2%
[13]
  viability, T/C: 72.1%
[14]
  viability, T/C: 74.3%
[15]
  viability, T/C: 69.5%
[16]
  viability, T/C: 65.8%
[17]
  viability, T/C: 71.1%
[18]
  viability, T/C: 63.3%
[19]
  viability, T/C: 69%
[20]
  viability, T/C: 61.3%
[21]
  viability, T/C: 62.3%
[22]
  viability, T/C: 62.6%
[23]
  viability, T/C: 63.5%
[24]
  viability, T/C: 66.2%
[25]
  viability, T/C: 67.3%
[26]
  viability, T/C: 57.6%
[27]
  viability, T/C: 61.2%
[28]
  viability, T/C: 56.4%
[29]
  viability, T/C: 62%
[30]
  viability, T/C: 66.2%
[31]
  viability, T/C: 53.4%
[32]
  viability, T/C: 56.9%
[33]
  viability, T/C: 54.2%
[34]
  viability, T/C: 57.3%
[35]
  viability, T/C: 63.1%
[36]
  viability, T/C: 56.3%

## O=C(NO)c1cnc(N2CCN(S(=O)(=O)c3ccc4ccccc4c3)CC2)nc1 + Cc1cnc(CNC(=O)c2c(=O)c3ccc(N4CCCN(C)CC4)nc3n3c2sc2ccccc23)cn1
Second compound 0.0316 µM
  IC50: 167 nM
Second compound 0.1 µM
  IC50: 194 nM
Second compound 0.316 µM
  IC50: 160 nM
Second compound 1 µM
  IC50: 148 nM
Second compound 3.16 µM
  IC50: 118 nM
Second compound 10 µM
  IC50: 111 nM
[1]
  viability, T/C: 81.5%
[2]
  viability, T/C: 60.9%
[3]
  viability, T/C: 36.3%
[4]
  viability, T/C: 2.76%
[5]
  viability, T/C: 0.43%
[6]
  viability, T/C: 0.3%
[7]
  viability, T/C: 75.5%
[8]
  viability, T/C: 68.2%
[9]
  viability, T/C: 36.2%
[10]
  viability, T/C: 2.32%
[11]
  viability, T/C: 0.07%
[12]
  viability, T/C: 0.41%
[13]
  viability, T/C: 60.8%
[14]
  viability, T/C: 61.7%
[15]
  viability, T/C: 33.8%
[16]
  viability, T/C: 1.48%
[17]
  viability, T/C: 0.32%
[18]
  viability, T/C: 0.45%
[19]
  viability, T/C: 67%
[20]
  viability, T/C: 57.1%
[21]
  viability, T/C: 32.3%
[22]
  viability, T/C: 0.14%
[23]
  viability, T/C: 0.48%
[24]
  viability, T/C: 0.09%
[25]
  viability, T/C: 60%
[26]
  viability, T/C: 51.9%
[27]
  viability, T/C: 27.6%
[28]
  viability, T/C: 0.22%
[29]
  viability, T/C: 0.63%
[30]
  viability, T/C: 0.36%
[31]
  viability, T/C: 52.8%
[32]
  viability, T/C: 52.5%
[33]
  viability, T/C: 23.7%
[34]
  viability, T/C: 0.3%
[35]
  viability, T/C: 0.83%
[36]
  viability, T/C: 0.13%

Source: PubChem BioAssay AID2060498 (Molecular Pharmacology Branch, DTP, NCI, 2025)
